Tests used:
[1] = biological target: T1, Dual specificity tyrosine-phosphorylation-regulated kinase 2 (Homo sapiens) (UniProt Q92630); test: Inhibition of DYRK2 at 1 uM
T1 sequence (whole entry): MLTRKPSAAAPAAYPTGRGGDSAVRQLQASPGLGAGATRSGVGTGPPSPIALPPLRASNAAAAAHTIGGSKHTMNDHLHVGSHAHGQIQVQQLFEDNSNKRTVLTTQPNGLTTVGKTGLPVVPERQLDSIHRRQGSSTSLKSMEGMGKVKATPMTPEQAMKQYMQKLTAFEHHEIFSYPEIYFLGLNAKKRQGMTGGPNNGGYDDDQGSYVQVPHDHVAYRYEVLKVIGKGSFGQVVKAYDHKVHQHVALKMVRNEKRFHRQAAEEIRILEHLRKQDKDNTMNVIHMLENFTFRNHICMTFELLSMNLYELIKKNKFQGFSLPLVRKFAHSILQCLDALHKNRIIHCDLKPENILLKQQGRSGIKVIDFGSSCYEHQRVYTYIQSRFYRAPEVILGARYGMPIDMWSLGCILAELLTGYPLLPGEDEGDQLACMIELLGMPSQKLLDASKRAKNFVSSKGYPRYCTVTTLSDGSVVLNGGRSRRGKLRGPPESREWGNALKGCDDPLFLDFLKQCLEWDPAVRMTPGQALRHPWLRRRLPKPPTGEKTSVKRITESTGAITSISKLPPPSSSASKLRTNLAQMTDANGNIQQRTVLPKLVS

[2] = biological target: Phosphatidylinositol 4,5-bisphosphate 3-kinase catalytic subunit beta isoform (Homo sapiens) (UniProt P42338); test: Inhibition of PIK3CB at 1 uM
[3] = biological target: T2, Serine/threonine-protein kinase Nek1 (Homo sapiens) (UniProt Q96PY6); test: Inhibition of NEK1 at 1 uM
T2 sequence (whole entry): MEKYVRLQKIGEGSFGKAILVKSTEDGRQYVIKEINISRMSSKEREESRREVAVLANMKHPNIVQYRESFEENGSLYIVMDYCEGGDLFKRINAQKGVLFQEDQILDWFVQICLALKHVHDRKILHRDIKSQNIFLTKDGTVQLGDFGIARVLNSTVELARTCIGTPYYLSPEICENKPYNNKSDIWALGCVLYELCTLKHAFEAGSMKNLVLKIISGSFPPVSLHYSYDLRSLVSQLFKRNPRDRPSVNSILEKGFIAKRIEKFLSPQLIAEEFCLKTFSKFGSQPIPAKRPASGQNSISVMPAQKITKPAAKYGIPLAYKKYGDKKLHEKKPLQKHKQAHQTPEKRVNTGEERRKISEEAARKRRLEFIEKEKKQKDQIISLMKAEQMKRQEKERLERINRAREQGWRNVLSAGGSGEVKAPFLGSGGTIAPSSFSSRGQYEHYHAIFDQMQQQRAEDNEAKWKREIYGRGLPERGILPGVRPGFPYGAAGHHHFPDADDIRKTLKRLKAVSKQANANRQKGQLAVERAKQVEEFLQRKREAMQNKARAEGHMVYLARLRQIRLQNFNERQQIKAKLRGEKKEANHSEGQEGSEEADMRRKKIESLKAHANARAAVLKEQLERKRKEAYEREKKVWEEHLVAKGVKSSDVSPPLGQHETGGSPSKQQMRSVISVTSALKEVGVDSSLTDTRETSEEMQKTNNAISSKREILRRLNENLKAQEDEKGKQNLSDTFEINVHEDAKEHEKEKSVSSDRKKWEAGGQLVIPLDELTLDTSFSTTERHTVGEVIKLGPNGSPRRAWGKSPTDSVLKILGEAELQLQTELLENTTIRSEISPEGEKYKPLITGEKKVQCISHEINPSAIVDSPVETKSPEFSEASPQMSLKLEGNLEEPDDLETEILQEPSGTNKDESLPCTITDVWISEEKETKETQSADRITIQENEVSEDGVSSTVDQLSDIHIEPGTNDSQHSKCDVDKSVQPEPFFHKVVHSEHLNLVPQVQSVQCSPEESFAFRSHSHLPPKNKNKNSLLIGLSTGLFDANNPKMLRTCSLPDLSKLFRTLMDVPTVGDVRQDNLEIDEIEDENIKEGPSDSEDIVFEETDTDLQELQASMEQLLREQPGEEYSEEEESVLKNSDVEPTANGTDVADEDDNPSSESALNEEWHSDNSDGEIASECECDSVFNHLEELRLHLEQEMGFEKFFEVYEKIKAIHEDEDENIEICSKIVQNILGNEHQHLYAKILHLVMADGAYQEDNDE

[4] = biological target: T3, cGMP-dependent protein kinase 2 (Homo sapiens) (UniProt Q13237); test: Inhibition of PRKG2 at 1 uM
T3 sequence (whole entry): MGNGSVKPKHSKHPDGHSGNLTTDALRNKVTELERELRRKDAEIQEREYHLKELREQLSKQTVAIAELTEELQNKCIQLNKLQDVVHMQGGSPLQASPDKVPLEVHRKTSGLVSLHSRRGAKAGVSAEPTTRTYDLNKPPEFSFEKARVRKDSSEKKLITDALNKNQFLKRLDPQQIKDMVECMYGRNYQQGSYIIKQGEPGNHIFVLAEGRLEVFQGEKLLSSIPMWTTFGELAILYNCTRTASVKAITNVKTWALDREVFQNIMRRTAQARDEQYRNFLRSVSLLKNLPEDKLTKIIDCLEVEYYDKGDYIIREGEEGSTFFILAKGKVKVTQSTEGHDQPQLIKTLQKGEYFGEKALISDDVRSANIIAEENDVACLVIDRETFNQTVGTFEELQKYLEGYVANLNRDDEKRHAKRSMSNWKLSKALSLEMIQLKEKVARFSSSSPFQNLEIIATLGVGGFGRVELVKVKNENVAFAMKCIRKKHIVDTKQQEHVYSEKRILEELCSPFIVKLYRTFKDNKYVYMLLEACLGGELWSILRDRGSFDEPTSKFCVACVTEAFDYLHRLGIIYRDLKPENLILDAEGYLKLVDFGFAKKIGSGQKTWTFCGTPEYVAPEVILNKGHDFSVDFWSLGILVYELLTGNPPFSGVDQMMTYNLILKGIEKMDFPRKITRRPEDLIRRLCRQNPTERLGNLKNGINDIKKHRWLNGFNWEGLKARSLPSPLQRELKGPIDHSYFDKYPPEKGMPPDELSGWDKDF

Measured: inhibition

Sequence of Phosphatidylinositol 4,5-bisphosphate 3-kinase catalytic subunit beta isoform (Homo sapiens) (P42338 whole entry, looked up, canonical isoform): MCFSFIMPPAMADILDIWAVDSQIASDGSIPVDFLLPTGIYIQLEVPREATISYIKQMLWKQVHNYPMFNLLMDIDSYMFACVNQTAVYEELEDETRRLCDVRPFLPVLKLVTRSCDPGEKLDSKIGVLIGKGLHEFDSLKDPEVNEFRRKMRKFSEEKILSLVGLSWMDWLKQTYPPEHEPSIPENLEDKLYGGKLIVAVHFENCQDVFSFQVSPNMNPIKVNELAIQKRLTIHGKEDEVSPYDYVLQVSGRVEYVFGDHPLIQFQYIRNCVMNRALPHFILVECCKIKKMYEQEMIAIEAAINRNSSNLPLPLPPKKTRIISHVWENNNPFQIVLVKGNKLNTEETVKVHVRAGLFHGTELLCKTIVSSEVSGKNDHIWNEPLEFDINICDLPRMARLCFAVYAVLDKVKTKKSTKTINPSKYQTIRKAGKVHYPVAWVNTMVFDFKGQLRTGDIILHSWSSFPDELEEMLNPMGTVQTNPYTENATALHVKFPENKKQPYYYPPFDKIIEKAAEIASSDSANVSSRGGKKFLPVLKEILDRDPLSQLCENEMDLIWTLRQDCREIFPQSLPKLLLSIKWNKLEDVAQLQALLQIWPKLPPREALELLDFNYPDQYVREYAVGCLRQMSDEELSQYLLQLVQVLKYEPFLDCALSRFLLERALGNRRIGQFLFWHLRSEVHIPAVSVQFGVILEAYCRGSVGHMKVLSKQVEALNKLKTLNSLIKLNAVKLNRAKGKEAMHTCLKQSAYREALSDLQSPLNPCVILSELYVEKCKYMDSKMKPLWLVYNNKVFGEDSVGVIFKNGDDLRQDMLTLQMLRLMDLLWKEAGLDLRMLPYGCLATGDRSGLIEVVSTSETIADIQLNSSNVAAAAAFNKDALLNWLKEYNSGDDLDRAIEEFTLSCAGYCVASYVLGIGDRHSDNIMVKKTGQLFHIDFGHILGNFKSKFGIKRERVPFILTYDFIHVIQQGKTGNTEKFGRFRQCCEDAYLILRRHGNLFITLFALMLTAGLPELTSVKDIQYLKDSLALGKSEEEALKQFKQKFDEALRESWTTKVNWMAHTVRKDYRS

CN1CCN(c2ccc(-c3cnc4c(c3)N(Cc3cc(F)ccc3F)CCN4)cn2)CC1
< 50%: all assays above

O=C(c1ccc(-c2cnc3c(c2)N(Cc2cc(Cl)ccc2C(F)(F)F)CCN3)cc1)N1CCC(N2CCCC2)CC1
< 50%: [3] | [4]

O=C(c1ccc(-c2cnc3c(c2)N(Cc2cc(Cl)ccc2C(F)(F)F)CCN3)cc1)N1CCCCC1
< 50%: [4]

CN1CCN(c2ccc(-c3cnc4c(c3)N(Cc3c(F)ccc(F)c3Cl)CCN4)cn2)CC1
< 50%: all assays above

COC1CCN(C(=O)c2ccc(-c3cnc4c(c3)N(Cc3cc(Cl)ccc3C(F)(F)F)CCN4)cc2)CC1
< 50%: [3] | [4]

O=C(O)c1ccc(-c2cnc3c(c2)N(Cc2cc(Cl)ccc2C(F)(F)F)CCN3)cc1
< 50%: [4]

CC(=O)N1CCN(c2cc(-c3cnc4c(c3)N(Cc3cc(Cl)ccc3C(F)(F)F)CCN4)ccn2)CC1
< 50%: all assays above

FC(F)(F)c1ccc(Cl)cc1CN1CCNc2ncc(-c3ccnc(N4CCNCC4)c3)cc21
< 50%: all assays above

CN1CCN(c2ccc(-c3cnc4c(c3)N(Cc3cc(Cl)ccc3C(F)(F)F)CCN4)cn2)CC1
< 50%: all assays above

CN1CCN(c2ccc(-c3cnc4c(c3)N(Cc3cc(Cl)ccc3Cl)CCN4)cn2)CC1
< 50%: all assays above
